Test results: publication PMC7354438 (Viruses, 2020)

Experiments:
[1] = system: hCoV-19/Norway/Trondheim-E9/2020; test: Drug test: viability of SARS-CoV-2-infected Vero-E6 cells (CellTiter-Glo); format: cell-based; details: Severe acute respiratory syndrome coronavirus 2, Vero C1008; infected Vero-E6 cells, moi 0.1; 72 h; Mean ± SD, n = 3
[2] = Drug combination test, mock-infected Vero-E6 cells (CTG); format: cell-based; details: African green monkey, mock-infected Vero-E6 cells (control), read-out: Relative viability (%)
[3] = system: viral genomic and sub-genomic RNAs; test: Gene expression analysis (RNA sequencing) of drug-treated infected Vero-E6 cells; format: cell-based, SARS-CoV-2; details: moi 0.1, 24 h, 3 M nelfinavir, 5 M amodiaquine or both
[4] = Cytotoxicity in mock-infected Vero-E6 cells (CellTiter-Glo); details: African green monkey, mock-infected Vero-E6 cells

CCN(CC)Cc1cc(Nc2ccnc3cc(Cl)ccc23)ccc1O [Amodiaquine]
EC50 [1]: 4.2 ± 0.2 µM
viability at 72 h, 0.008 uM ([2]; single drug 0.008 uM (other drug 0)): 89.1%
viability at 72 h, 0.04 uM ([2]; single drug 0.04 uM (other drug 0)): 91.8%
viability at 72 h, 0.2 uM ([2]; single drug 0.2 uM (other drug 0)): 76.4%
viability at 72 h, 1 uM ([2]; single drug 1.0 uM (other drug 0)): 76.6%
viability at 72 h, 5 uM ([2]; single drug 5.0 uM (other drug 0)): 71.5%
transcription of viral genomic and sub-genomic RNAs [3]: lowered the transcription of viral genomic and sub-genomic RNAs
CC50 at 72 h [4]: > 30 µM
